Experimental data reported in ChEMBL document CHEMBL2424519, “DABCO-promoted one-pot synthesis of heteroaryl-substituted benzenes and their biological evaluation” (2013).
In brackets after ≈: the same amount, converted by molar mass. Activity calls are given as the source filed them. No cut-off for these calls is given here.

Tests used:
Aspergillus niger [1] = experiment: Antifungal activity against Aspergillus niger at 10 mg/ml after 7 days by disc diffusion technique; format: functional; conditions: 168 h, read-out: IZ
Candida tropicalis [2] = experiment: Antifungal activity against Candida tropicalis at 10 mg/ml after 7 days by disc diffusion technique; format: functional; conditions: 168 h, read-out: IZ
Aspergillus flavus [3] = experiment: Antifungal activity against Aspergillus flavus at 10 mg/ml after 7 days by disc diffusion technique; format: functional; conditions: 168 h, read-out: IZ
Candida albicans [4] = experiment: Antifungal activity against Candida albicans at 10 mg/ml after 7 days by disc diffusion technique; format: functional; conditions: 168 h, read-out: IZ
Aspergillus niger [5] = experiment: Antifungal activity against Aspergillus niger after 7 days by disc diffusion technique; format: functional; conditions: 168 h
Aspergillus flavus [6] = experiment: Antifungal activity against Aspergillus flavus after 7 days by disc diffusion technique; format: functional; conditions: 168 h
Candida tropicalis [7] = experiment: Antifungal activity against Candida tropicalis after 7 days by disc diffusion technique; format: functional; conditions: 168 h
Candida albicans [8] = experiment: Antifungal activity against Candida albicans after 7 days by disc diffusion technique; format: functional; conditions: 168 h
Pseudomonas aeruginosa [9] = experiment: Antibacterial activity against Pseudomonas aeruginosa after 24 hrs by agar-diffusion technique; format: functional
Klebsiella pneumoniae [10] = experiment: Antibacterial activity against Klebsiella pneumoniae after 24 hrs by agar-diffusion technique; format: functional
Salmonella typhi [11] = experiment: Antibacterial activity against Salmonella typhi after 24 hrs by agar-diffusion technique; format: functional, Salmonella enterica subsp. enterica serovar Typhi; conditions: Salmonella enterica
Escherichia coli [12] = experiment: Antibacterial activity against Escherichia coli after 24 hrs by agar-diffusion technique; format: functional
Pseudomonas aeruginosa [13] = experiment: Antibacterial activity against Pseudomonas aeruginosa at 10 mg/ml after 24 hrs by agar-diffusion technique; format: functional; conditions: read-out: IZ
Klebsiella pneumoniae [14] = experiment: Antibacterial activity against Klebsiella pneumoniae at 10 mg/ml after 24 hrs by agar-diffusion technique; format: functional; conditions: read-out: IZ
Salmonella typhi [15] = experiment: Antibacterial activity against Salmonella typhi at 10 mg/ml after 24 hrs by agar-diffusion technique; format: functional, Salmonella enterica subsp. enterica serovar Typhi; conditions: Salmonella enterica, read-out: IZ
Escherichia coli [16] = experiment: Antibacterial activity against Escherichia coli at 10 mg/ml after 24 hrs by agar-diffusion technique; format: functional; conditions: read-out: IZ
[17] = test system: Mycobacterium tuberculosis; experiment: Antitubercular activity against Mycobacterium tuberculosis H37Rv at 1 ug/ml after 4 weeks by Lowenstein-Jensen medium method; format: functional, organism-based
[18] = test system: Mycobacterium tuberculosis; experiment: Antitubercular activity against Mycobacterium tuberculosis H37Rv at 10 ug/ml after 4 weeks by Lowenstein-Jensen medium method; format: functional, organism-based
[19] = test system: Mycobacterium tuberculosis; experiment: Antitubercular activity against Mycobacterium tuberculosis H37Rv at 100 ug/ml after 4 weeks by Lowenstein-Jensen medium method; format: functional, organism-based

| Structure (SMILES) | zone of inhibition at 10000 µg/mL (Aspergillus niger [1]) [mm] | zone of inhibition at 10000 µg/mL (Candida tropicalis [2]) [mm] | zone of inhibition at 10000 µg/mL (Aspergillus flavus [3]) [mm] | zone of inhibition at 10000 µg/mL (Candida albicans [4]) [mm] | MIC (Aspergillus niger [5]) [µg/mL] | MIC (Aspergillus flavus [6]) [µg/mL] | MIC (Candida tropicalis [7]) [µg/mL] | MIC (Candida albicans [8]) [µg/mL] | MIC (Pseudomonas aeruginosa [9]) [µg/mL] | MIC (Klebsiella pneumoniae [10]) [µg/mL] | MIC (Salmonella typhi [11]) [µg/mL] | MIC (Escherichia coli [12]) [µg/mL] | zone of inhibition at 10000 µg/mL (Pseudomonas aeruginosa [13]) [mm] | zone of inhibition at 10000 µg/mL (Klebsiella pneumoniae [14]) [mm] | zone of inhibition at 10000 µg/mL (Salmonella typhi [15]) [mm] | zone of inhibition at 10000 µg/mL (Escherichia coli [16]) [mm] | Activity [17] | Activity [18] | Activity [19] |
| --- | --- | --- | --- | --- | --- | --- | --- | --- | --- | --- | --- | --- | --- | --- | --- | --- | --- | --- | --- |
| Clc1ccccc1C(c1ccccc1)(c1ccccc1)n1ccnc1 [CLOTRIMAZOLE] | 23 | 21 | 19 | 20 | – | – | – | – | – | – | – | – | – | – | – | – | – | – | – |
| CCOC(=O)c1c(-c2ccc(OC)cc2)cc(-c2ccc[nH]2)c([N+](=O)[O-])c1N | 10 | 10 | 12 | 9 | 20 (≈ 52.4 µM) | 20 (≈ 52.4 µM) | 20 (≈ 52.4 µM) | 20 (≈ 52.4 µM) | 20 (≈ 52.4 µM) | 20 (≈ 52.4 µM) | 20 (≈ 52.4 µM) | 20 (≈ 52.4 µM) | 12 | 16 | 14 | 10 | Active | Active | Active |
| NC(=O)c1cnccn1 | – | – | – | – | – | – | – | – | – | – | – | – | – | – | – | – | Active | Active | Active |
| N#Cc1c(-c2ccccc2)cc(-c2ccc[nH]2)c([N+](=O)[O-])c1N | 20 | 12 | 16 | 18 | 20 (≈ 65.7 µM) | 20 (≈ 65.7 µM) | 20 (≈ 65.7 µM) | 20 (≈ 65.7 µM) | 20 (≈ 65.7 µM) | 20 (≈ 65.7 µM) | 20 (≈ 65.7 µM) | 20 (≈ 65.7 µM) | 16 | 18 | 24 | 14 | Active | Active | Active |
| O=C(O)c1cn(C2CC2)c2cc(N3CCNCC3)c(F)cc2c1=O [CIPROFLOXACIN] | – | – | – | – | – | – | – | – | – | – | – | – | 23 | 22 | 24 | – | – | – | – |
| CCOC(=O)c1c(-c2ccc(OC)cc2)cc(-c2ccco2)c([N+](=O)[O-])c1N | 10 | 8 | 9 | 7 | 20 (≈ 52.3 µM) | 20 (≈ 52.3 µM) | 20 (≈ 52.3 µM) | 20 (≈ 52.3 µM) | 20 (≈ 52.3 µM) | 20 (≈ 52.3 µM) | 20 (≈ 52.3 µM) | 20 (≈ 52.3 µM) | 8 | 9 | 7 | 10 | Active | Active | Active |
| N#Cc1c(-c2ccccc2)cc(-c2cccs2)c([N+](=O)[O-])c1N | 15 | 21 | 12 | 24 | 20 (≈ 62.2 µM) | 20 (≈ 62.2 µM) | 20 (≈ 62.2 µM) | 20 (≈ 62.2 µM) | 20 (≈ 62.2 µM) | 20 (≈ 62.2 µM) | 20 (≈ 62.2 µM) | 20 (≈ 62.2 µM) | 10 | 8 | 9 | 12 | Active | Active | Active |
| N#Cc1c(-c2ccccc2)cc(-c2ccco2)c([N+](=O)[O-])c1N | 8 | 8 | 14 | 10 | 20 (≈ 65.5 µM) | 20 (≈ 65.5 µM) | 20 (≈ 65.5 µM) | 20 (≈ 65.5 µM) | 20 (≈ 65.5 µM) | 20 (≈ 65.5 µM) | 20 (≈ 65.5 µM) | 20 (≈ 65.5 µM) | 14 | 12 | 16 | 17 | Active | Active | Active |
| CCOC(=O)c1c(-c2ccc(OC)cc2)cc(-c2cccs2)c([N+](=O)[O-])c1N | 18 | 42 | 14 | 16 | 20 (≈ 50.2 µM) | 20 (≈ 50.2 µM) | 20 (≈ 50.2 µM) | 20 (≈ 50.2 µM) | 20 (≈ 50.2 µM) | 20 (≈ 50.2 µM) | 20 (≈ 50.2 µM) | 20 (≈ 50.2 µM) | 18 | 20 | 16 | 14 | Active | Active | Active |
